Test results as given in ChEMBL document CHEMBL1201862, “PubChem BioAssay data set” (2004).
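Following 48 hours of exposure in 96-well plates, responses at five concentrations were used to interpolate endpoints linearly. At the GI50, growth is halved.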 Active and inactive are the calls of the source. Rule as the data show it: active = GI50 up to about 1.1 µM and inactive = higher.

Assays:
Assay in all cases: NCI tumour cell line growth inhibition, 48 h
CAKI-1 = tested on: CAKI-1
COLO 205 = tested on: COLO 205
DU-145 = tested on: DU-145
HL-60 = tested on: HL-60
HOP-62 = tested on: HOP-62
Hs-578T = tested on: Hs-578T
MDA-MB-231 = tested on: MDA-MB-231
MOLT-4 = tested on: MOLT-4
Malme-3M = tested on: Malme-3M
NCI-H226 = tested on: NCI-H226
NCI-H522 = tested on: NCI-H522
OVCAR-3 = tested on: OVCAR-3
OVCAR-8 = tested on: OVCAR-8
PC-3 = tested on: PC-3
RXF 393 = tested on: RXF 393
SF-268 = tested on: SF-268
SK-OV-3 = tested on: SK-OV-3
SN12C = tested on: SN12C
SR = tested on: SR
UACC-62 = tested on: UACC-62

Measured: GI50

O=C(O)c1nc2nc(Cl)c(Cl)nc2[nH]1
inactive: CAKI-1 > 100 µM | COLO 205 > 100 µM | DU-145 > 100 µM | HL-60 > 100 µM | HOP-62 > 100 µM | Hs-578T > 100 µM | MDA-MB-231 > 100 µM | MOLT-4 > 100 µM | Malme-3M > 100 µM | NCI-H226 > 100 µM | NCI-H522 > 100 µM | OVCAR-3 > 100 µM | OVCAR-8 > 100 µM | PC-3 > 100 µM | RXF 393 > 100 µM | SF-268 > 100 µM | SK-OV-3 > 100 µM | SN12C > 100 µM | SR > 100 µM | UACC-62 > 100 µM

NS(=O)(=O)c1ccc(N=C2C(=O)Nc3ccccc32)cc1
inactive: CAKI-1 > 100 µM | COLO 205 13.1 µM | DU-145 > 100 µM | HL-60 > 100 µM | HOP-62 > 100 µM | Hs-578T > 100 µM | MDA-MB-231 > 100 µM | MOLT-4 > 100 µM | Malme-3M > 100 µM | NCI-H226 > 100 µM | NCI-H522 70.8 µM | OVCAR-3 > 100 µM | OVCAR-8 > 100 µM | PC-3 > 100 µM | RXF 393 > 100 µM | SF-268 > 100 µM | SK-OV-3 > 100 µM | SN12C > 100 µM | SR 67.8 µM | UACC-62 > 100 µM

CN(COC(=O)c1ccccc1)c1nc(N(C)COC(=O)c2ccccc2)nc(N(C)COC(=O)c2ccccc2)n1
inactive: CAKI-1 57.7 µM | COLO 205 > 100 µM | DU-145 > 100 µM | HL-60 > 100 µM | HOP-62 14.7 µM | Hs-578T 22.4 µM | MDA-MB-231 15.7 µM | MOLT-4 > 100 µM | Malme-3M > 100 µM | NCI-H226 30.4 µM | NCI-H522 52.4 µM | OVCAR-3 > 84.1 µM | OVCAR-8 39.4 µM | PC-3 > 100 µM | RXF 393 7.83 µM | SF-268 21.8 µM | SK-OV-3 > 65.2 µM | SN12C > 100 µM | SR > 100 µM | UACC-62 > 60.7 µM

Cc1ccc(NC(c2ccccc2)P(=O)(c2ccccc2)c2ccccc2)cc1 (stereo not given)
inactive: CAKI-1 > 100 µM | COLO 205 > 100 µM | DU-145 > 100 µM | HL-60 34 µM | HOP-62 95.5 µM | Hs-578T 44.7 µM | MDA-MB-231 > 100 µM | MOLT-4 > 100 µM | Malme-3M > 100 µM | NCI-H226 > 100 µM | NCI-H522 > 100 µM | OVCAR-3 > 100 µM | OVCAR-8 > 100 µM | PC-3 > 100 µM | RXF 393 47.1 µM | SF-268 71.3 µM | SK-OV-3 > 100 µM | SN12C > 100 µM | SR 60.3 µM | UACC-62 > 100 µM
